Drawing on patent US20200131669A1, “CYCLIC PEPTIDE COMPOUND HAVING HIGH MEMBRANE PERMEABILITY, AND LIBRARY CONTAINING SAME” (Chugai Seiyaku Kabushiki Kaisha, priority 2017, published 2020), this text covers Papp A→B for 17 compounds.

Structures are written as SMILES. Starred links: 1 amine or outer side, 2 acyl side, 3 side chain; linkers in the order of their positions; H or OH if unused. Positions of bridges follow the written chain, without caps; N, C: chain ends. Non-standard residues stand in square brackets, D forms with d. Residues, ends and D or L forms follow the SMILES beside them. *: point of attachment. Glu(NHSO2Me) = CS(=O)(=O)NC(=O)CC[C@H](N)C(=O)O; Phe(4-CF3) = N[C@@H](Cc1ccc(C(F)(F)F)cc1)C(=O)O; NMePhe(3-Cl) = CN[C@@H](Cc1cccc(Cl)c1)C(=O)O; NMehPhe = CN[C@@H](CCc1ccccc1)C(=O)O; hhPhe = N[C@@H](CCCc1ccccc1)C(=O)O; X3 = O=C([C@H](CCCCO)N[*:1])[*:2]; NMeF = CN[C@@H](Cc1ccccc1)C(=O)O; NMeGABA = CN(CCCC(=O)[*:2])[*:1]; Butyl(3-Me,3-OH) = CC(C)(O)CC*; NMeD = CN[C@@H](CC(=O)O)C(=O)O; aThr = C[C@H](O)[C@H](N)C(=O)O; NMeL = CN[C@@H](CC(C)C)C(=O)O; NMeV = CN[C@H](C(=O)O)C(C)C; NMeAbu = CC[C@H](NC)C(=O)O; NMeA = CN[C@@H](C)C(=O)O; Piperidide = C1CCN(*)CC1; dNMeA = CN[C@H](C)C(=O)O; NBuGly = CCCCNCC(=O)O; Isopentyl = CC(C)CC*; NEtG = CCNCC(=O)O; Sar = CNCC(=O)O; tBu = CC(C)(C)* A value given as a limit tells only on which side of the number the result lay.

One series is described as follows: Caco-2 membrane permeability, improved method as used in the following Examples (96-well, 20 to 24 h preincubation). Type of series: in vitro ADME. The conditions noted are these: human, Caco-2, Caco-2. Put shortly: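 Caco-2 monolayers were grown three weeks and preincubated 20–24 h at 37 °C with compound in DMEM+FaSSIF (1% DMSO) apically. The assay then used compound in FaSSIF/HBSS (1% DMSO, pH 6.0) apically and HBSS with 4% BSA (pH 7.4) basally. Basal samples were taken at 180 min for LC/MS, and Papp (cm/sec) was calculated.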
Compound `CC[C@H](C)[C@@H]1NC(=O)[C@H](Cc2ccccc2)N(C)C(=O)CN(C)C(=O)C[C@@H](C(=O)N2CCCCC2)NC(=O)[C@H](CC(C)C)N(C)C(=O)[C@H](COC(C)(C)C)NC(=O)[C@H](CC(C)C)N(C)C(=O)[C@H](CCc2ccccc2)N(C)C(=O)CN(C)C(=O)[C@H]([C@@H](C)O)NC(=O)[C@H](CC(C)C)N(C)C1=O` [pd324] ([Sar][NMeF]I[NMeL]T[Sar][NMehPhe][NMeL]S(tBu)[NMeL]D-Piperidide; lactam N-11) yielded a Papp A→B at 180 min of 3.3 ×10⁻⁶ cm/s. With `CCCCN1CC(=O)N(C)[C@@H](C(C)C)C(=O)N[C@H](C(=O)N2CCCCC2)CC(=O)N(C)[C@@H](CC)C(=O)N[C@@H](CCC(=O)NS(C)(=O)=O)C(=O)N(C)[C@@H](CC(C)C)C(=O)N(C)[C@@H](Cc2cccc(Cl)c2)C(=O)N[C@@H](CC(C)C)C(=O)N(C)[C@@H](Cc2ccccc2)C(=O)N(C)[C@@H](CC(C)C)C(=O)N[C@@H]([C@@H](C)O)C1=O` [pd63] ([NMeAbu][Glu(NHSO2Me)][NMeL][NMePhe(3-Cl)]L[NMeF][NMeL]T[NBuGly][NMeV]D-Piperidide; lactam N-11), the Papp A→B at 180 min is < 0.1 ×10⁻⁶ cm/s. As for `CC(C)CCOC[C@@H]1NC(=O)[C@H](CC(C)C)N(C)C(=O)CN(C)C(=O)[C@H]([C@@H](C)O)NC(=O)[C@H](CC(C)C)N(C)C(=O)[C@H](COCCC(C)(C)O)NC(=O)[C@H](Cc2ccccc2)N(C)C(=O)[C@@H](C(C)C)NC(=O)C[C@@H](C(=O)N2CCCCC2)NC(=O)[C@H](CC(C)C)N(C)C(=O)[C@H](Cc2ccccc2)N(C)C1=O` [pd433] ([dV][NMeF]S(Butyl(3-Me,3-OH))[NMeL]T[Sar][NMeL]S(Isopentyl)[NMeF][NMeL]D-Piperidide; lactam N-11), the Papp A→B at 180 min stood at 1.4 ×10⁻⁶ cm/s.

In the case of `CC(C)C[C@@H]1NC(=O)[C@H](Cc2ccccc2)N(C)C(=O)[C@@H](CC(C)C)NC(=O)C[C@@H](C(=O)N2CCCCC2)NC(=O)[C@H](C(C)C)N(C)C(=O)[C@H](Cc2ccccc2)N(C)C(=O)[C@H](COC(C)(C)C)NC(=O)[C@H](CC(C)C)N(C)C(=O)CN(C)C(=O)[C@H](CCCCO)NC(=O)[C@H](CC(C)C)N(C)C1=O` [pd449] ([dL][NMeF]L[NMeL][X3][Sar][NMeL]S(tBu)[NMeF][NMeV]D-Piperidide; lactam N-11), the Papp A→B at 180 min was determined as 2 ×10⁻⁶ cm/s.

In turn, `CC[C@H](C)[C@@H]1NC(=O)[C@H](C(C)C)N(C)C(=O)CCCN(C)C(=O)C[C@@H](C(=O)N2CCCCC2)NC(=O)[C@H](CC(C)C)N(C)C(=O)[C@H](CC(C)C)N(C)C(=O)[C@H]([C@@H](C)O)NC(=O)[C@H](CC(C)C)N(C)C(=O)[C@H](COCCC(C)(C)O)NC(=O)[C@H](Cc2cccc(Cl)c2)N(C)C(=O)[C@H](Cc2ccccc2)N(C)C1=O` [pd435] ([NMeGABA][NMeV]I[NMeF][NMePhe(3-Cl)]S(Butyl(3-Me,3-OH))[NMeL]T[NMeL][NMeL]D-Piperidide; lactam N-11) registered a Papp A→B at 180 min of 1.4 ×10⁻⁶ cm/s.

The series is the same for the next values; noted with them: human, Caco-2, Caco-2 (cm/sec).
In the case of `CC(C)C[C@H]1C(=O)N[C@@H](COC(C)(C)C)C(=O)N(C)[C@@H](Cc2ccccc2)C(=O)N(C)[C@@H](CC(C)C)C(=O)N(C)[C@H](C(=O)N2CCCCC2)CC(=O)N[C@H](C)C(=O)N(C)[C@@H](Cc2cccc(Cl)c2)C(=O)N[C@@H](C(C)C)C(=O)N(C)[C@@H](C(C)C)C(=O)N[C@@H]([C@@H](C)O)C(=O)N(C)CC(=O)N1C` [pd159] ([dA][NMePhe(3-Cl)]V[NMeV]T[Sar][NMeL]S(tBu)[NMeF][NMeL][NMeD]-Piperidide; lactam N-11), the Papp A→B at 180 min turned out to be 1.8 ×10⁻⁶ cm/s. The same measure, in the same setting: under `CC(C)C[C@H]1C(=O)N(C)[C@@H](CC(C)C)C(=O)N[C@@H](COC(C)(C)C)C(=O)N(C)[C@@H](C(C)C)C(=O)N[C@H](C(=O)N2CCCCC2)CC(=O)N(C)CC(=O)N(C)[C@@H](Cc2ccccc2)C(=O)N[C@@H](Cc2ccc(C(F)(F)F)cc2)C(=O)N(C)[C@@H](CC(C)C)C(=O)N[C@@H]([C@@H](C)O)C(=O)N(C)CC(=O)N1C` [pd140] ([Sar][NMeF][Phe(4-CF3)][NMeL]T[Sar][NMeL][NMeL]S(tBu)[NMeV]D-Piperidide; lactam N-11) stands 2.5 ×10⁻⁶ cm/s; under `CC(C)C[C@@H]1NC(=O)[C@H](Cc2ccccc2)N(C)C(=O)[C@H](C)NC(=O)C[C@@H](C(=O)N2CCCCC2)NC(=O)[C@H](Cc2ccccc2)N(C)C(=O)[C@H](Cc2ccccc2)N(C)C(=O)[C@H](COC(C)(C)C)NC(=O)[C@H](CC(C)C)N(C)C(=O)CN(C)C(=O)[C@H]([C@@H](C)O)NC(=O)[C@H](CC(C)C)N(C)C1=O` [pd217] (A[NMeF]L[NMeL]T[Sar][NMeL]S(tBu)[NMeF][NMeF]D-Piperidide; lactam N-11), 1.1 ×10⁻⁶ cm/s; under `CCN1CC(=O)N[C@@H]([C@@H](C)O)C(=O)N(C)[C@@H](CC(C)C)C(=O)N(C)[C@@H](CC(C)C)C(=O)N[C@@H](Cc2ccc(C(F)(F)F)cc2)C(=O)N[C@H](C(=O)N2CCCCC2)CC(=O)N[C@@H](COC(C)(C)C)C(=O)N(C)[C@@H](CC(C)C)C1=O` [pd143] (S(tBu)[NMeL][NEtG]T[NMeL][NMeL][Phe(4-CF3)]D-Piperidide; lactam N-8), 1.1 ×10⁻⁶ cm/s. As to `CC[C@H](C)[C@@H]1NC(=O)[C@H](CC(C)C)N(C)C(=O)CN(C)C(=O)[C@H]([C@@H](C)O)NC(=O)[C@H](Cc2ccccc2)N(C)C(=O)[C@H](CC(C)C)NC(=O)[C@H](Cc2ccccc2)N(C)C(=O)[C@@H](CC(C)C)NC(=O)C[C@@H](C(=O)N2CCCCC2)NC(=O)[C@H](CC(C)C)N(C)C(=O)[C@H](Cc2ccccc2)N(C)C1=O` [pd225] ([dL][NMeF]L[NMeF]T[Sar][NMeL]I[NMeF][NMeL]D-Piperidide; lactam N-11), the Papp A→B at 180 min was determined as 1 ×10⁻⁶ cm/s. Consider `CC[C@H](C)[C@@H]1NC(=O)[C@H](CC(C)C)N(C)C(=O)CCCN(C)C(=O)C[C@@H](C(=O)N2CCCCC2)NC(=O)[C@H](CC(C)C)N(C)C(=O)[C@H](C)N(C)C(=O)[C@H](Cc2c[nH]c3ccccc23)NC(=O)[C@H](CC(C)C)N(C)C(=O)[C@H](COC(C)(C)C)NC(=O)[C@H](CC(C)C)N(C)C(=O)[C@H](CC(C)C)N(C)C1=O` [pd110] ([NMeGABA][NMeL]I[NMeL][NMeL]S(tBu)[NMeL]W[NMeA][NMeL]D-Piperidide; lactam N-11), for which the Papp A→B at 180 min turned out to be 0.29 ×10⁻⁶ cm/s.

With `CC[C@H](C)[C@@H]1NC(=O)[C@H](CC(C)C)N(C)C(=O)[C@@H](C)NC(=O)C[C@@H](C(=O)N2CCCCC2)NC(=O)[C@H](C(C)C)N(C)C(=O)[C@H](Cc2ccccc2)N(C)C(=O)[C@H](COC(C)(C)C)NC(=O)[C@H](CC(C)C)N(C)C(=O)CN(C)C(=O)[C@H](Cc2ccc(O)cc2)NC(=O)[C@H](C)N(C)C1=O` [pd117] ([dA][NMeL]I[NMeA]Y[Sar][NMeL]S(tBu)[NMeF][NMeV]D-Piperidide; lactam N-11), the Papp A→B at 180 min stood at 0.56 ×10⁻⁶ cm/s. Still for that read-out and setting: with `CC(C)C[C@@H]1NC(=O)[C@H](CC(C)C)N(C)C(=O)[C@H](C)N(C)C(=O)C[C@@H](C(=O)N2CCCCC2)NC(=O)[C@H](CC(C)C)N(C)C(=O)[C@H](Cc2ccccc2)N(C)C(=O)[C@H](Cc2ccccc2)N(C)C(=O)[C@H]([C@@H](C)O)NC(=O)[C@H](Cc2ccccc2)N(C)C1=O` [pd211] ([NMeA][NMeL]L[NMeF]T[NMeF][NMeF][NMeL]D-Piperidide; lactam N-9) the figure was 1.4 ×10⁻⁶ cm/s. Consider `CC(C)C[C@@H]1NC(=O)CN(C)C(=O)[C@H](Cc2ccccc2)N(C)C(=O)[C@@H](C)NC(=O)C[C@@H](C(=O)N2CCCCC2)NC(=O)[C@H](Cc2ccccc2)N(C)C(=O)[C@H](Cc2ccccc2)N(C)C(=O)[C@H](COC(C)(C)C)NC(=O)[C@H](CC(C)C)N(C)C(=O)[C@H](Cc2ccccc2)NC(=O)[C@H]([C@@H](C)O)NC1=O` [pd246] ([dA][NMeF][Sar]LTF[NMeL]S(tBu)[NMeF][NMeF]D-Piperidide; lactam N-11), for which the Papp A→B at 180 min was found to be 0.014 ×10⁻⁶ cm/s. For the compound `CC(C)C[C@H]1C(=O)N[C@@H](COC(C)(C)C)C(=O)N(C)[C@@H](Cc2ccccc2)C(=O)N(C)[C@@H](C)C(=O)N[C@H](C(=O)N2CCCCC2)CC(=O)N[C@H](C(C)C)C(=O)N(C)[C@@H](Cc2ccccc2)C(=O)N[C@@H](CCCc2ccccc2)C(=O)N(C)[C@@H](CC(C)C)C(=O)N[C@@H]([C@@H](C)O)C(=O)N(C)CC(=O)N1C` [pd192] ([dV][NMeF][hhPhe][NMeL]T[Sar][NMeL]S(tBu)[NMeF][NMeA]D-Piperidide; lactam N-11), the Papp A→B at 180 min was found to be 1.1 ×10⁻⁶ cm/s.

The same series, now with this note: human, Caco-2; read-out: Caco-2.
As to `CC[C@H](C)[C@@H]1NC(=O)[C@H](CC(C)C)N(C)C(=O)[C@H](C)N(C)C(=O)[C@H]([C@H](C)O)NC(=O)[C@H](Cc2ccccc2)N(C)C(=O)[C@H](C)N(C)C(=O)[C@@H](C)N(C)C(=O)C[C@@H](C(=O)N(C)[C@@H](Cc2ccccc2)C(=O)N(C)[C@@H](Cc2ccccc2)C(=O)N[C@@H](C)C(=O)N2CCCCC2)NC(=O)[C@H](C(C)C)N(C)C(=O)[C@H](CC(C)C)N(C)C1=O` [pd201] ([dNMeA][NMeA][NMeF][aThr][NMeA][NMeL]I[NMeL][NMeV]D[NMeF][NMeF]A-Piperidide; lactam N-10), the Papp A→B at 180 min was determined as 2.3 ×10⁻⁶ cm/s.

Still in this series, the particulars now being: human; Papp, Caco-2 membrane permeability, improved method; read-out: Caco-2.
For `CC(C)C[C@H]1C(=O)N[C@@H](C(C)C)C(=O)N(C)[C@@H](Cc2ccccc2)C(=O)N(C)[C@@H](Cc2ccccc2)C(=O)N[C@@H](COC(C)(C)C)C(=O)N(C)[C@@H](CC(C)C)C(=O)N[C@@H](CCCCO)C(=O)N(C)[C@@H](CC(C)C)C(=O)N(C)[C@@H](CC(C)C)C(=O)N[C@H](C(=O)N2CCCCC2)CC(=O)N(C)CCCC(=O)N1C` [pd446] ([NMeGABA][NMeL]V[NMeF][NMeF]S(tBu)[NMeL][X3][NMeL][NMeL]D-Piperidide; lactam N-11), the Papp A→B at 180 min came out at 1.3 ×10⁻⁶ cm/s.
